According to PubChem BioAssay AID248 (DTP/NCI, 2004):
Toxic doses and inconclusive results are not listed.

Test system: L1210 leukemia ip in BDF1 mice, survival T/C
Test: NCI In Vivo Anticancer Drug Screen. Data for tumor model L1210 Leukemia (intraperitoneal) in B6D2F1 (BDF1) mice
Conditions: endpoint: mean survival time, higher = longer survival
How it was run: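 Survival endpoint. Drug-treated group vs vehicle group, expressed as T divided by C. Tumor passaged by transplantation.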

[1] = dose: 100.0 mg/kg/injection, schedule: Q04DX003 (ip), vehicle: Klucel (hydroxypropylcellulose) (HPC)
[2] = dose: 200.0 mg/kg/injection, schedule: Q04DX003 (ip), vehicle: Klucel (hydroxypropylcellulose) (HPC)
[3] = dose: 400.0 mg/kg/injection, schedule: Q04DX003 (ip), vehicle: Klucel (hydroxypropylcellulose) (HPC)
[4] = dose: 100.0 mg/kg/injection, schedule: Q04DX003 (ip), vehicle: acetone
[5] = dose: 200.0 mg/kg/injection, schedule: Q04DX003 (ip), vehicle: acetone
[6] = dose: 400.0 mg/kg/injection, schedule: Q04DX003 (ip), vehicle: acetone
[7] = dose: 100.0 mg/kg/injection, schedule: Q01DX001 (ip), vehicle: carboxymethylcellulose (CMC)
[8] = dose: 200.0 mg/kg/injection, schedule: Q01DX001 (ip), vehicle: carboxymethylcellulose (CMC)
[9] = dose: 400.0 mg/kg/injection, schedule: Q01DX001 (ip), vehicle: carboxymethylcellulose (CMC)

NC(CSC(c1ccccc1)(c1ccccc1)c1ccc(Br)cc1)C(=O)O (stereo not drawn)
T/C (dose: 3.13 mg/kg/injection, schedule: Q01DX009 (ip), vehicle: saline): 155 % of control | T/C (dose: 6.25 mg/kg/injection, schedule: Q01DX009 (ip), vehicle: saline): 162 % of control | T/C (dose: 12.5 mg/kg/injection, schedule: Q01DX009 (ip), vehicle: saline): 214 % of control | T/C (dose: 25.0 mg/kg/injection, schedule: Q01DX009 (ip), vehicle: saline): 111 % of control | T/C (dose: 75.0 mg/kg/injection, schedule: Q01DX001 (ip), vehicle: other): 105 % of control | T/C (dose: 150.0 mg/kg/injection, schedule: Q01DX001 (ip), vehicle: other): 121 % of control

O=[N+]([O-])c1ccc(Oc2cc(Cl)c(Cl)cc2Cl)nc1
T/C (dose: 100.0 mg/kg/injection, schedule: Q01DX009 (ip), vehicle: saline with Tween-80): 101 % of control | T/C (dose: 100.0 mg/kg/injection, schedule: Q04DX003 (ip), vehicle: saline with Tween-80): 104 % of control | T/C (dose: 200.0 mg/kg/injection, schedule: Q01DX009 (ip), vehicle: saline with Tween-80): 103 % of control | T/C (dose: 200.0 mg/kg/injection, schedule: Q04DX003 (ip), vehicle: saline with Tween-80): 102 % of control | T/C (dose: 400.0 mg/kg/injection, schedule: Q01DX009 (ip), vehicle: saline with Tween-80): 100 % of control | T/C (dose: 400.0 mg/kg/injection, schedule: Q04DX003 (ip), vehicle: saline with Tween-80): 106 % of control

[N-]=[N+]=[N-]
T/C (dose: 10.0 mg/kg/injection, schedule: Q01DX001 (ip), vehicle: saline): 100 % of control | T/C (dose: 20.0 mg/kg/injection, schedule: Q01DX001 (ip), vehicle: saline): 100 % of control

O=C(Nc1ccc([N+](=O)[O-])cc1)Nc1ccc([N+](=O)[O-])cc1 (tested in a mixture with another compound)
T/C [1]: 89 % of control | T/C (dose: 200.0 mg/kg/injection, schedule: Q01DX009 (ip), vehicle: saline): 98 % of control | T/C [2]: 100 % of control | T/C (dose: 400.0 mg/kg/injection, schedule: Q01DX009 (ip), vehicle: saline): 88 % of control | T/C [3]: 89 % of control

CCCCOC(=O)CC(=O)OC
T/C (dose: 100.0 mg/kg/injection, schedule: Q01DX009 (ip), vehicle: acetone): 93 % of control | T/C [4]: 100 % of control | T/C (dose: 200.0 mg/kg/injection, schedule: Q01DX009 (ip), vehicle: acetone): 90 % of control | T/C [5]: 103 % of control | T/C (dose: 400.0 mg/kg/injection, schedule: Q01DX009 (ip), vehicle: acetone): 93 % of control | T/C [6]: 107 % of control

CSc1nc(N)cc(Nc2ccc(Cl)[nH]c2=S)n1
T/C (dose: 75.0 mg/kg/injection, schedule: Q01DX001 (ip), vehicle: Klucel (hydroxypropylcellulose) (HPC)): 92 % of control | T/C (dose: 150.0 mg/kg/injection, schedule: Q01DX001 (ip), vehicle: Klucel (hydroxypropylcellulose) (HPC)): 95 % of control | T/C (dose: 300.0 mg/kg/injection, schedule: Q01DX001 (ip), vehicle: Klucel (hydroxypropylcellulose) (HPC)): 93 % of control

O=C1/C(=C/c2ccccc2[N+](=O)[O-])CCc2ccccc21
T/C [4]: 96 % of control | T/C [5]: 106 % of control | T/C [6]: 95 % of control

CCCNc1ncnc2c1cnn2C
T/C (dose: 50.0 mg/kg/injection, schedule: Q01DX009 (ip), vehicle: saline): 124 % of control | T/C (dose: 50.0 mg/kg/injection, schedule: Q04DX003 (ip), vehicle: saline): 100 % of control | T/C (dose: 100.0 mg/kg/injection, schedule: Q01DX001 (ip), vehicle: saline): 107 % of control | T/C (dose: 100.0 mg/kg/injection, schedule: Q04DX003 (ip), vehicle: saline): 102 % of control | T/C (dose: 200.0 mg/kg/injection, schedule: Q01DX001 (ip), vehicle: saline): 104 % of control | T/C (dose: 200.0 mg/kg/injection, schedule: Q04DX003 (ip), vehicle: saline): 103 % of control

CCCCCCCCCCCCCCCCN(C(C)c1ccccc1)S(=O)(=O)c1ccc(OC)c(N)c1 (stereo not drawn)
T/C (dose: 100.0 mg/kg/injection, schedule: Q01DX001 (ip), vehicle: Klucel (hydroxypropylcellulose) (HPC)): 93 % of control | T/C (dose: 100.0 mg/kg/injection, schedule: Q01DX009 (ip), vehicle: Klucel (hydroxypropylcellulose) (HPC)): 94 % of control | T/C [1]: 98 % of control | T/C (dose: 200.0 mg/kg/injection, schedule: Q01DX001 (ip), vehicle: Klucel (hydroxypropylcellulose) (HPC)): 88 % of control | T/C (dose: 200.0 mg/kg/injection, schedule: Q01DX009 (ip), vehicle: Klucel (hydroxypropylcellulose) (HPC)): 94 % of control | T/C [2]: 98 % of control | T/C (dose: 400.0 mg/kg/injection, schedule: Q01DX001 (ip), vehicle: Klucel (hydroxypropylcellulose) (HPC)): 88 % of control | T/C (dose: 400.0 mg/kg/injection, schedule: Q01DX009 (ip), vehicle: Klucel (hydroxypropylcellulose) (HPC)): 95 % of control | T/C [3]: 98 % of control

Cc1cccc(OCc2ccccc2)n1
T/C (dose: 50.0 mg/kg/injection, schedule: Q01DX001 (ip), vehicle: carboxymethylcellulose (CMC)): 103 % of control | T/C [7]: 105 % of control | T/C [8]: 100 % of control | T/C [9]: 100 % of control

CC(=O)CC(=O)Nc1cccnc1
T/C [7]: 100 % of control | T/C [8]: 96 % of control | T/C [9]: 100 % of control

COC1=C(Br)C(=O)c2ncccc2C1=O
T/C (dose: 5.0 mg/kg/injection, schedule: Q01DX001 (ip), vehicle: carboxymethylcellulose (CMC)): 104 % of control | T/C (dose: 20.0 mg/kg/injection, schedule: Q01DX001 (ip), vehicle: carboxymethylcellulose (CMC)): 94 % of control

Nc1ccc(-c2ccc(N)c(Oc3ccccc3)c2)cc1Oc1ccccc1
T/C (dose: 100.0 mg/kg/injection, schedule: Q01DX001 (ip), vehicle: other): 92 % of control | T/C (dose: 200.0 mg/kg/injection, schedule: Q01DX001 (ip), vehicle: other): 97 % of control | T/C (dose: 400.0 mg/kg/injection, schedule: Q01DX001 (ip), vehicle: other): 94 % of control

O=C(NCCCl)NC1CCC(C(=O)O)CC1 (stereo not drawn)
T/C (dose: 100.0 mg/kg/injection, schedule: Q01DX001 (ip), vehicle: saline with Tween-80): 97 % of control | T/C (dose: 200.0 mg/kg/injection, schedule: Q01DX001 (ip), vehicle: saline with Tween-80): 100 % of control | T/C (dose: 400.0 mg/kg/injection, schedule: Q01DX001 (ip), vehicle: saline with Tween-80): 94 % of control

O=C(CCc1ccc(O)cc1)c1ccccc1
T/C (dose: 100.0 mg/kg/injection, schedule: Q04DX002 (ip), vehicle: Klucel (hydroxypropylcellulose) (HPC)): 97 % of control | T/C (dose: 200.0 mg/kg/injection, schedule: Q04DX002 (ip), vehicle: Klucel (hydroxypropylcellulose) (HPC)): 87 % of control | T/C (dose: 400.0 mg/kg/injection, schedule: Q04DX002 (ip), vehicle: Klucel (hydroxypropylcellulose) (HPC)): 94 % of control

CNC[C@@H](O)c1ccc(O)c(O)c1
T/C (dose: 0.1 mg/kg/injection, schedule: Q01DX009 (ip), vehicle: saline): 94 % of control | T/C (dose: 0.2 mg/kg/injection, schedule: Q01DX001 (ip), vehicle: saline): 112 % of control | T/C (dose: 0.2 mg/kg/injection, schedule: Q01DX009 (ip), vehicle: saline): 109 % of control | T/C (dose: 0.31 mg/kg/injection, schedule: Q01DX009 (ip), vehicle: saline): 111 % of control | T/C (dose: 0.4 mg/kg/injection, schedule: Q01DX001 (ip), vehicle: saline): 106 % of control | T/C (dose: 0.4 mg/kg/injection, schedule: Q01DX009 (ip), vehicle: saline): 102 % of control | T/C (dose: 0.4 mg/kg/injection, schedule: Q04DX003 (ip), vehicle: saline): 108 % of control | T/C (dose: 0.59 mg/kg/injection, schedule: Q01DX009 (ip), vehicle: saline): 95 % of control | T/C (dose: 0.62 mg/kg/injection, schedule: Q01DX009 (ip), vehicle: saline): 98 % of control | T/C (dose: 0.8 mg/kg/injection, schedule: Q01DX001 (ip), vehicle: saline): 104 % of control | T/C (dose: 0.8 mg/kg/injection, schedule: Q04DX003 (ip), vehicle: saline): 113 % of control | T/C (dose: 0.9 mg/kg/injection, schedule: Q01DX009 (ip), vehicle: saline): 97 % of control | T/C (dose: 1.1 mg/kg/injection, schedule: Q01DX001 (ip), vehicle: saline): 96 % of control | T/C (dose: 1.25 mg/kg/injection, schedule: Q01DX009 (ip), vehicle: saline): 101 % of control | T/C (dose: 1.3 mg/kg/injection, schedule: Q01DX009 (ip), vehicle: saline): 97 % of control | T/C (dose: 1.6 mg/kg/injection, schedule: Q04DX003 (ip), vehicle: saline): 98 % of control | T/C (dose: 2.3 mg/kg/injection, schedule: Q04DX003 (ip), vehicle: saline): 103 % of control | T/C (dose: 2.5 mg/kg/injection, schedule: Q01DX009 (ip), vehicle: saline): 102 % of control | T/C (dose: 3.6 mg/kg/injection, schedule: Q04DX003 (ip), vehicle: saline): 109 % of control
